From article PMC6105598, “Targeting protein-protein interactions for therapeutic discovery via FRET-based high-throughput screening in living cells” (Scientific Reports, 2018)
pEC50: −log10 of the molar value. Several values for one entry are separate records, joined by “and”; a condition that tells them apart may be missing. Identical values can stand only once. Like-named read-outs stand apart in the source and are kept apart here.

Legend:
[1] = target: T1, cardiac SR (SERCA2a + PLB) (Sus scrofa, UniProt P11607); assay: Ca-ATPase activity of cardiac SR (CSR), NADH-linked enzyme-coupled assay; format: biochemical, pig; settings: for Vmax @ 30 µM / ΔVmax @ 30 µM: 30 µM compound; for ΔVmax @ 30 µM: relative to DMSO control
T1 construct: Cardiac SR membrane vesicles were isolated from ventricular myocardium obtained from fresh pig hearts; from tissue; host or cells: pig ventricular myocardium, SR membrane vesicles
Description: To characterize the relationship between the structural readout (FRET) and the functional effects, in vitro Ca-ATPase assays were performed on cardiac SR (which contains both SERCA2a and PLB). […] To further examine the functional effects of Hit compounds, Ca-ATPase assays were performed on both skeletal SR (SERCA1a only) and cardiac SR (SERCA2a + PLB) at a series of Ca concentrations ranging from pCa 5 to 8.
(§1) Skeletal muscle SR membrane vesicles were isolated from longissimus dorsi obtained from New Zealand white rabbits, as previously described. Cardiac SR membrane vesicles were isolated from ventricular myocardium obtained from fresh pig hearts. All experimental protocols were reviewed and approved by University of Minnesota’s Institutional Animal Care and Use Committee, an Association for Assessment and Accreditation of Laboratory Animal Care institution.
(§2) An enzyme-coupled, NADH-linked ATPase assay was used to measure SERCA ATPase activity in 96-well microplates. Each well contained 0.8 μg (skeletal) or 2 μg (cardiac) of SR vesicles adjusted for the different SERCA contents of skeletal and cardiac SR, 50 mM MOPS (pH 7.0), 100 mM KCl, 5 mM MgCl2, 1 mM EGTA, 0.2 mM NADH, 1 mM phosphoenol pyruvate, 10 IU/mL of pyruvate kinase, 10 IU/mL of lactate dehydrogenase, 3.5 μg/mL of the Ca ionophore A23187, and CaCl2 added to set free [Ca] to the desired values. The assay was started upon the addition of ATP at a final concentration of 5 mM and read in a SpectraMax Plus microplate spectrophotometer rom Molecular Devices (Sunnyvale, CA).

[2] = target: SERCA2a-PLB complex (GFP-SERCA2a / RFP-PLB in HEK293 cells) (Homo sapiens, UniProt P16615+P26678, C36A/C41F/C46A); assay: SERCA2a-PLB TR-FRET (fluorescence lifetime) biosensor assay in living cells; format: cell-based; design: expressed in transfected cells; host or cells: HEK293; settings: for ΔFLT: compound incubation for 20 min, uncertainty (1 S.D.) 11 ps; for direction of FRET change of the SERCA2a-PLB biosensor: concentration-response 0.01-100 µM
[3] = target: T2, skeletal SR (SERCA1a only) (Oryctolagus cuniculus, UniProt P04191); assay: Ca-ATPase activity of skeletal SR (SSR), NADH-linked enzyme-coupled assay; format: biochemical, rabbit; settings: for pEC50 / Vmax @ 30 µM / ΔVmax @ 30 µM / percent change in Vmax vs DMSO control at 30 µM: SSR; for Vmax @ 30 µM / ΔVmax @ 30 µM / percent change in Vmax vs DMSO control at 30 µM: 30 µM compound; for ΔVmax @ 30 µM / percent change in Vmax vs DMSO control at 30 µM: relative to DMSO control; for percent change in Vmax vs DMSO control at 30 µM: read-out: ΔVmax @ 30 µM
T2 construct: Skeletal muscle SR membrane vesicles were isolated from longissimus dorsi obtained from New Zealand white rabbits; from tissue; host or cells: rabbit longissimus dorsi skeletal muscle, SR membrane vesicles
Description: To further examine the functional effects of Hit compounds, Ca-ATPase assays were performed on both skeletal SR (SERCA1a only) and cardiac SR (SERCA2a + PLB) at a series of Ca concentrations ranging from pCa 5 to 8.
as §1, §2

[4] = concentration-response 0.01-100 µM compound, live HEK293 cells

Chain of SERCA2a-PLB complex (GFP-SERCA2a / RFP-PLB in HEK293 cells) (P16615 1-997 isoform P16615-2, stated change not applied): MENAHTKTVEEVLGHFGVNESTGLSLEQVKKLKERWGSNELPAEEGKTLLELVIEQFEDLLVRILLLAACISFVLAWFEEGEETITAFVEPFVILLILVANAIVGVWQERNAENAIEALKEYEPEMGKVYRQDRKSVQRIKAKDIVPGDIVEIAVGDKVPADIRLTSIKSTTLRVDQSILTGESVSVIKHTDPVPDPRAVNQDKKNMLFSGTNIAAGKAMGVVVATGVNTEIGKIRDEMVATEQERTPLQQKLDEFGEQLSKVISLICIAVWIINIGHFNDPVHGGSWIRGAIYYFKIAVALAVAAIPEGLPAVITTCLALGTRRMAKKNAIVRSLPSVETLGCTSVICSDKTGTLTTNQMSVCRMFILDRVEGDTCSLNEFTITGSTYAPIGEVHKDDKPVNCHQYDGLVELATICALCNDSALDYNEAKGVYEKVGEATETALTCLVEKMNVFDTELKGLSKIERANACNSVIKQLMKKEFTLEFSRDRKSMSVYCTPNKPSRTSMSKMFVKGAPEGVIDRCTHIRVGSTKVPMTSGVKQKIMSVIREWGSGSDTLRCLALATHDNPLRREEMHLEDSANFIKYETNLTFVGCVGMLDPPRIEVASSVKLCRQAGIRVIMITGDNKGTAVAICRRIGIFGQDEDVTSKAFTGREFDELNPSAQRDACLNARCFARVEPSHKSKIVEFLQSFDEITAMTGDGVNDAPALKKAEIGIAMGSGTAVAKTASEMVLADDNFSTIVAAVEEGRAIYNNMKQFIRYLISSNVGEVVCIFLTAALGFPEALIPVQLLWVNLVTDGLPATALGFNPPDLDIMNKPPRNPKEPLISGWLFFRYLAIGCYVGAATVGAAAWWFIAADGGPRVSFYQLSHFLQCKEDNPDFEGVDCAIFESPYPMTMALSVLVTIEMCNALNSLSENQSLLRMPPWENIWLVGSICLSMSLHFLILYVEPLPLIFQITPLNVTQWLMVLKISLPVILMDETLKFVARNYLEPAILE
Chain of SERCA2a-PLB complex (GFP-SERCA2a / RFP-PLB in HEK293 cells) (P26678 whole entry C36A/C41F/C46A): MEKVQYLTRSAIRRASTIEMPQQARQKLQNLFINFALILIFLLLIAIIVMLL
T2 sequence (P04191 1-994 isoform P04191-2): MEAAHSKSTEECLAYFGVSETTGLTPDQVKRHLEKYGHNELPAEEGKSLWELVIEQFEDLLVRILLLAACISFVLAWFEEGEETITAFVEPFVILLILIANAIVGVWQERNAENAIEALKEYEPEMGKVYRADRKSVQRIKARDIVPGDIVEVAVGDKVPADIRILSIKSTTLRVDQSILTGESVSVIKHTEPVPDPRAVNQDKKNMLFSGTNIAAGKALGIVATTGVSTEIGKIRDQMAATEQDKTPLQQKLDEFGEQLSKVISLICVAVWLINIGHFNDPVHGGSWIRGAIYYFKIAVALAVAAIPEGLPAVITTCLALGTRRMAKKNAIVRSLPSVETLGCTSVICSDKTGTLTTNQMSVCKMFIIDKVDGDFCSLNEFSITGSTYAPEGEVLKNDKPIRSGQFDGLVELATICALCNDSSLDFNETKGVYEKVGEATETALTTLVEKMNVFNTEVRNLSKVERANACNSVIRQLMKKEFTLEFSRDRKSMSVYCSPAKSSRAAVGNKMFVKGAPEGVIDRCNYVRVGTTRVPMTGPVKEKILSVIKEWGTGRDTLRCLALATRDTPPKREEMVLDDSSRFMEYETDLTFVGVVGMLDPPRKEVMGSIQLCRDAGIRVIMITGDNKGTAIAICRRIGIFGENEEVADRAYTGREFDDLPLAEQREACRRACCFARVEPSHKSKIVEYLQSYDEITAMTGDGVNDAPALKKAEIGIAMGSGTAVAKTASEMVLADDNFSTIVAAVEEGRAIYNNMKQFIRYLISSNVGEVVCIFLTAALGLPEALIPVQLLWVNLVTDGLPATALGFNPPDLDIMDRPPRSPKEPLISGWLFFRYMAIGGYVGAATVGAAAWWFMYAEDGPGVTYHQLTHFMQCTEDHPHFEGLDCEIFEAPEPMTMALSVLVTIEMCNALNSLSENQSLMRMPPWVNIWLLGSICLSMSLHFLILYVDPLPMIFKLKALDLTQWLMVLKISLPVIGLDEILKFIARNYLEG
T1 sequence (P11607 1-997 isoform P11607-2): as the sequence (P16615 1-997 isoform P16615-2, stated change not applied) above, with R371K, N403K, S538P, L570M, H576N, D667E, A713S, S865T, I889V, V963L counted along it
T1 sequence (P61013 whole entry partner): as the sequence (P26678 whole entry C36A/C41F/C46A) above, with E2D, K27N, A36C, F41C, A46C counted along it

CCCCCCCCCCCCCCCC(=O)OC(CC(=O)O)C[N+](C)(C)C.[Cl-] (racemic) [Palmitoyl-DL-carnitine chloride]
Vmax @ 30 µM ([1]; CSR): 0.22 i.u. | ΔVmax @ 30 µM ([1]; CSR): -67.1% | pEC50 ([1]; CSR, read-out: EC50 Vmax): 4.79 | ΔFLT ([2]; final concentration 10 µM): 50 ps | ΔFLT ([2]; final concentration 100 µM): 189 ps | pEC50 [2, 4]: 4.60 | pEC50 [3]: 4.91 | Vmax @ 30 µM [3]: 0.57 i.u. | ΔVmax @ 30 µM [3]: -78.1%

CCc1ccc(/C=C2/SC(=S)NC2=O)cc1 [10058-F4]
Vmax @ 30 µM ([1]; CSR): 0.63 i.u. | ΔVmax @ 30 µM ([1]; CSR): -7.5% | ΔFLT ([2]; final concentration 10 µM): 17 ps | ΔFLT ([2]; final concentration 100 µM): -11 ps | Vmax @ 30 µM [3]: 2.63 i.u. | ΔVmax @ 30 µM [3]: 0.5%

CC(C)(C)c1ccc(/C=C/C(=O)Nc2ccc3c(c2)OCCO3)cc1 [AMG9810]
Vmax @ 30 µM ([1]; CSR): 0.68 i.u. | ΔVmax @ 30 µM ([1]; CSR): 0.1% | ΔFLT ([2]; final concentration 10 µM): 6 ps | ΔFLT ([2]; final concentration 100 µM): -1 ps | Vmax @ 30 µM [3]: 2.62 i.u. | ΔVmax @ 30 µM [3]: 0.1%

CCCCN(CC)c1nc(C)nc2c1c(C)cn2-c1c(C)cc(C)cc1C [CP 154526]
Vmax @ 30 µM ([1]; CSR): 0.91 i.u. | ΔVmax @ 30 µM ([1]; CSR): 34.4% | pEC50 ([1]; CSR, read-out: EC50 Vmax): 6.00 | increase of Vmax ([1]; cardiac SR): 34% | ΔFLT ([2]; final concentration 10 µM): 48 ps | ΔFLT ([2]; final concentration 100 µM): 185 ps | direction of FRET change of the SERCA2a-PLB biosensor [2]: decrease in FRET | pEC50 [2, 4]: 5.03 | pEC50 [3]: 5.60 and 5.61 | Vmax @ 30 µM [3]: 3.40 i.u. | percent change in Vmax vs DMSO control at 30 µM [3]: 35% | increase of Vmax ([3]; skeletal SR): 35%

CN1CCC[C@@H]1Cc1c[nH]c2ccc(Nc3ncccc3[N+](=O)[O-])cc12 [CP-135807]
Vmax @ 30 µM ([1]; CSR): 0.65 i.u. | ΔVmax @ 30 µM ([1]; CSR): -3.8% | ΔFLT ([2]; final concentration 10 µM): -70 ps | ΔFLT ([2]; final concentration 100 µM): -390 ps | pEC50 [2, 4]: < 4.00 | Vmax @ 30 µM [3]: 2.67 i.u. | ΔVmax @ 30 µM [3]: 2.1%

Clc1ccc(C(c2ccc(Cl)cc2)n2cc[n+](CC(OCc3ccc(Cl)cc3Cl)c3ccc(Cl)cc3Cl)c2)cc1 (stereo not drawn) [Calmidazolium]
Vmax @ 30 µM ([1]; CSR): 0.08 i.u. | ΔVmax @ 30 µM ([1]; CSR): -88.7% | pEC50 ([1]; CSR, read-out: EC50 Vmax): 4.80 | ΔFLT ([2]; final concentration 10 µM): 45 ps | ΔFLT ([2]; final concentration 100 µM): -192 ps | pEC50 [2, 4]: 4.58 | pEC50 [3]: 5.13 | Vmax @ 30 µM [3]: 0.01 i.u. | percent change in Vmax vs DMSO control at 30 µM [3]: -99.5%

CCOc1nc2cccc(C(=O)OC(C)OC(=O)OC3CCCCC3)c2n1Cc1ccc(-c2ccccc2-c2nnn[nH]2)cc1 (stereo not drawn) [Candesartan cilexetil]
Vmax @ 30 µM ([1]; CSR): 0.17 i.u. | ΔVmax @ 30 µM ([1]; CSR): -75.3% | pEC50 ([1]; CSR, read-out: EC50 Vmax): 4.93 | ΔFLT ([2]; final concentration 10 µM): 70 ps | ΔFLT ([2]; final concentration 100 µM): 181 ps | pEC50 [2, 4]: 4.70 | pEC50 [3]: 5.13 | Vmax @ 30 µM [3]: 0.41 i.u. | percent change in Vmax vs DMSO control at 30 µM [3]: -84.5%

CNC(=O)c1cc2c(cn1)[nH]c1ccccc12 [FG7142]
Vmax @ 30 µM ([1]; CSR): 0.67 i.u. | ΔVmax @ 30 µM ([1]; CSR): -0.7% | ΔFLT ([2]; final concentration 10 µM): 4 ps | ΔFLT ([2]; final concentration 100 µM): 10 ps | Vmax @ 30 µM [3]: 2.63 i.u. | ΔVmax @ 30 µM [3]: 0.5%

COC(=O)c1c(C)[nH]c(C)c1C(=O)c1ccccc1Cc1ccccc1 [FPL 64176]
Vmax @ 30 µM ([1]; CSR): 0.52 i.u. | ΔVmax @ 30 µM ([1]; CSR): -23.0% | ΔFLT ([2]; final concentration 10 µM): 19 ps | ΔFLT ([2]; final concentration 100 µM): 47 ps | pEC50 [2, 4]: < 4.00 | Vmax @ 30 µM [3]: 2.64 i.u. | ΔVmax @ 30 µM [3]: 0.7%

Oc1ccc(/C=C/c2ccc(/C=C/c3ccc(O)cc3)c(Br)c2)cc1 [K114]
Vmax @ 30 µM ([1]; CSR): 0.11 i.u. | ΔVmax @ 30 µM ([1]; CSR): -83.7% | pEC50 ([1]; CSR, read-out: EC50 Vmax): 5.17 | ΔFLT ([2]; final concentration 10 µM): -16 ps | ΔFLT ([2]; final concentration 100 µM): -102 ps | pEC50 [2, 4]: 4.38 | pEC50 [3]: 5.45 | Vmax @ 30 µM [3]: 0.32 i.u. | ΔVmax @ 30 µM [3]: -87.9%

Cc1[nH]c(=O)c(C#N)cc1-c1ccc2nccn2c1 [Olprinone]
Vmax @ 30 µM ([1]; CSR): 0.68 i.u. | ΔVmax @ 30 µM ([1]; CSR): -0.1% | ΔFLT ([2]; final concentration 10 µM): 36 ps | ΔFLT ([2]; final concentration 100 µM): 254 ps | pEC50 [2, 4]: < 4.00 | Vmax @ 30 µM [3]: 2.70 i.u. | percent change in Vmax vs DMSO control at 30 µM [3]: 3%

O=C(Nc1cccnc1)N1CCC(Cc2cccc(Oc3ccc(C(F)(F)F)cn3)c2)CC1 [PF3845]
Vmax @ 30 µM ([1]; CSR): 0.48 i.u. | ΔVmax @ 30 µM ([1]; CSR): -28.3% | pEC50 [2]: 5.49 | ΔFLT ([2]; final concentration 10 µM): 30 ps | ΔFLT ([2]; final concentration 100 µM): 38 ps | Vmax @ 30 µM [3]: 2.61 i.u. | percent change in Vmax vs DMSO control at 30 µM [3]: -0.2%

CC1=C(/C=C/C(C)=C/C=C/C(C)=C/C(=O)O)C(C)(C)CCC1 [Retinoic Acid]
Vmax @ 30 µM ([1]; CSR): 0.42 i.u. | ΔVmax @ 30 µM ([1]; CSR): -37.8% | pEC50 ([1]; CSR, read-out: EC50 Vmax): 4.95 | ΔFLT ([2]; final concentration 10 µM): 27 ps | ΔFLT ([2]; final concentration 100 µM): -31 ps | pEC50 [2, 4]: 4.18 | Vmax @ 30 µM [3]: 2.34 i.u. | percent change in Vmax vs DMSO control at 30 µM [3]: -10.6%

O=C(c1cc(O)c(O)c([N+](=O)[O-])c1)c1ccccc1F [Ro 41-0960]
Vmax @ 30 µM ([1]; CSR): 0.53 i.u. | ΔVmax @ 30 µM ([1]; CSR): -20.9% | pEC50 ([1]; cardiac SR (SERCA2a + PLB), read-out: EC50 of the increase in Ca affinity (pKCa)): 4.64 | increase of Ca-ATPase activity at pCa 6.4 ([1]; cardiac SR, pCa 6.4, 24 µM compound): 44% | Ca affinity (pKCa) in cardiac SR with compound ([1]; increased from 6.05 (control), concentration-dependent, up to 64 µM): 6.45 | ΔFLT ([2]; final concentration 10 µM): -26 ps | ΔFLT ([2]; final concentration 100 µM): -152 ps | direction of FRET change of the SERCA2a-PLB biosensor [2]: increase in FRET | pEC50 [2, 4]: 4.65 | pEC50 [3]: 5.01 | Vmax @ 30 µM [3]: 1.44 i.u. | ΔVmax @ 30 µM [3]: -45.1% | effect on Ca affinity in skeletal SR ([3]; even at the highest compound concentrations): no effect

C=C(C)[C@H]1Cc2c(ccc3c2O[C@@H]2COc4cc(OC)c(OC)cc4[C@@H]2C3=O)O1 [Rotenone]
Vmax @ 30 µM ([1]; CSR): 0.53 i.u. | ΔVmax @ 30 µM ([1]; CSR): -22.0% | Vmax @ 30 µM [3]: 2.64 i.u. | percent change in Vmax vs DMSO control at 30 µM [3]: 0.7%

CN=c1nc(-c2ccccc2)n(-c2ccccc2)s1 [SCH 202676]
Vmax @ 30 µM ([1]; CSR): 0.22 i.u. | ΔVmax @ 30 µM ([1]; CSR): -68.2% | pEC50 ([1]; CSR, read-out: EC50 Vmax): 5.85 | decrease of Vmax ([1]; cardiac SR): 68% | ΔFLT ([2]; final concentration 10 µM): 36 ps | ΔFLT ([2]; final concentration 100 µM): 35 ps | direction of FRET change of the SERCA2a-PLB biosensor [2]: decrease in FRET | pEC50 [2, 4]: 5.74 | pEC50 [3]: 6.05 | Vmax @ 30 µM [3]: 0.07 i.u. | ΔVmax @ 30 µM [3]: -97.3% | decrease of Vmax ([3]; skeletal SR): 97%

Brc1c(Br)c(Br)c2n[nH]nc2c1Br [TBB]
Vmax @ 30 µM ([1]; CSR): 0.49 i.u. | ΔVmax @ 30 µM ([1]; CSR): -27.2% | ΔFLT ([2]; final concentration 10 µM): 31 ps | ΔFLT ([2]; final concentration 100 µM): 63 ps | pEC50 [2, 4]: 4.14 | Vmax @ 30 µM [3]: 2.66 i.u. | ΔVmax @ 30 µM [3]: 1.6%
